Values joined by “and” are separate entries in the source; they are usually repeats but may differ in a detail not shown here. Equal values may be shown once. “Also recorded” adds a separate entry of the source.
Tests used:
[1] = test system: PSA (prostate specific antigen); experiment: PSA content in blood of benign prostatic hyperplasia animal model (ELISA); assay type: in vivo, Sprague Dawley mice; details: TP + drug 2 mg/kg
Description: First of all, the animals used for experiments were 11-week old male Sprague Dawley mice, which were purchased from Damul Science Co. (Daejeon, Republic of Korea). They were provided with hard food and water frequently and were used in experiments after a week of adaptation period for laboratory environment and the animal experiments conducted herein were approved by Chonnam National University animal experiment ethics committee (IRB) (CNU IACUC-YB-R-2012-9).
The male Sprague Dawley mice were divided into the groups such as vehicle control group (V-CTL) that is an experimental group, the group administered with testosterone only (TP-CTL), the group administered with finasteride as positive control for testosterone (TP+FS) and the groups administered with Dendropanax morbifera (TP+DMH), and for each group, n was equal to 4 and overall experimental procedure is as illustrated in Table 3. […] As a positive control group, the finasteride (2 mg/kg/day) was used and the Dendropanax morbifera extract was administered for 2 groups (0.5 and 2 mg/kg).
From the sacrificed mouse in the above example, the plasma was isolated from blood and the content of PSA was determined. PSA measurement was conducted using ELISA (MyBiosource, Arizona, USA) according to the manufacturer's experimental protocol and presented as pg/mL content.

[2] = test system: mouse model with benign prostatic hyperplasia; experiment: Prostate size in testosterone-induced benign prostatic hyperplasia animal model; assay type: in vivo, Sprague Dawley mice
Experimental: First of all, the animals used for experiments were 11-week old male Sprague Dawley mice, which were purchased from Damul Science Co. (Daejeon, Republic of Korea). […] As a positive control group, the finasteride (2 mg/kg/day) was used and the Dendropanax morbifera extract was administered for 2 groups (0.5 and 2 mg/kg). 3 weeks after the drug administration, the mice were sacrificed and the results were observed. V, vehicle administration group; CTL, control group; TP, testosterone-propionate administration group; FS, finasteride administration group; […] CMC, carboxymethylcellulose administration group. […] From the previously described experiment schedule, blood and prostate were collected after measuring the body weight and sacrificing on the day after the last day of administration. The weight of removed prostate was measured after removing the surrounding fats and foreign substances and the weight ratio of prostate to body was calculated by the following equation and the result is listed in Table 4.

[3] = test system: PSA (prostate specific antigen) mRNA, AR target gene; experiment: PSA mRNA expression in LNCaP⋅FGC cells; details: 48 hours
Experimental: For the analysis of anti-androgen activity, the LNCaP⋅FGC cells, an androgen-dependent prostate cancer cell line, were used and the level of mRNA of PSA (Prostate specific antigen), which is one of the AR target genes, in prostate cancer was measured.

CC(C)(C)NC(=O)[C@H]1CC[C@H]2[C@@H]3CC[C@H]4NC(=O)C=C[C@]4(C)[C@H]3CC[C@]12C [FS, finasteride]
% Vehicle control ([1]; blood PSA): 18.7 ± 5.0% | % TP control ([1]; blood PSA, relative to TP (3 mg/kg) only): 34.6% | PSA ([1]; plasma): *323.0 ± 85.0 pg/mL | Weight of prostate ([2]; TP 3 mg/kg s.c. + drug 2 mg/kg p.o. daily for 3 weeks): 0.95 ± 0.12 g | prostate %/body weight (w/w) ([2]; TP + drug 2 mg/kg p.o.): *0.22 ± 0.018% | % TP-CTL ratio ([2]; TP + drug 2 mg/kg p.o., relative to testosterone-only control): 74.3% and 74.3 ± 3.2% | % V-CTL ratio ([2]; TP + drug 2 mg/kg p.o., relative to vehicle control): 185.7 ± 15.1%

C=C[C@H](O)C#CC#CC=CC(O)CCCCCCCC(=O)O (stereo partly drawn) [HS3, 9,16S-dihydroxy-10,17-octadecadiene-12,14-diynoic acid]
mRNA expression of PSA [3]: inhibit

C=CC(O)C#CC#CC=C[C@H](O)CCCCCCCC(=O)O (stereo partly drawn) [HS5, 9,16R-dihydroxy-10,17-octadecadiene-12,14-diynoic acid]
mRNA expression of PSA [3]: inhibit

C=CC(O)C#CC#CC/C=C\CCCCCCCC(=O)O (stereo not shown) [HS7, (9Z)-16-hydroxy-9,17-octadecadiene-12,14-diynoic acid]
mRNA expression of PSA [3]: inhibit; also recorded: most effective

From patent US10130668B2, “Composition comprising Dendropanax morbifera extract or compound derived therefrom as active ingredient for preventing and treating benign prostatic hyperplasia” (priority 2012, dated 2018)
